Results: US9439428B2, “Herbicidal compounds” (SYNGENTA LIMITED, priority 2011, dated 2016)

Experiments:
Format in all cases: in vivo
Conditions in all cases: 1000 g/h, evaluated after 13 days, five point scale
[1] = tested on: Abuthilon theophrasti (ABUTH); test: Post-emergence herbicidal glasshouse test
Description: (§1) Seeds of a variety of test species are sown in standard soil in pots (Alopecurus myosuroides (ALOMY), Setaria faberi (SETFA), Echinochloa crus-galli (ECHCG), Abuthilon theophrasti (ABUTH) and Amaranthus retoflexus (AMARE)). After cultivation for one day (pre-emergence) or after 8 days cultivation (post-emergence) under controlled conditions in a glasshouse (at 24/16° C., day/night; 14 hours light; 65% humidity), the plants are sprayed with an aqueous spray solution derived from the formulation of the technical active ingredient in acetone/water (50:50) solution containing 0.5% Tween 20 (polyoxyethelyene sorbitan monolaurate, CAS RN 9005-64-5). Compounds ae applied at 1000 g/h. The test plants are then grown in a glasshouse under controlled conditions in a glasshouse (at 24/16° C., day/night; 14 hours light; 65% humidity) and watered twice daily. After 13 days for pre and post-emergence, the test is evaluated for the percentage herbicidal damage caused to the plant. The biological activities are shown in the following table on a five point scale (5=80-100% damage; 4=60-79% damage; 3=40-59% damage; 2=20-39% damage; 1=0-19% damage).

[2] = tested on: Alopecurus myosuroides (ALOMY); test: Post-emergence herbicidal glasshouse test
Description: as §1

[3] = tested on: Amaranthus retoflexus (AMARE); test: Post-emergence herbicidal glasshouse test
Description: as §1

[4] = tested on: Echinochloa crus-galli (ECHCG); test: Post-emergence herbicidal glasshouse test
Description: as §1

[5] = tested on: Setaria faberi (SETFA); test: Post-emergence herbicidal glasshouse test
Description: as §1

[6] = tested on: Abuthilon theophrasti (ABUTH); test: Pre-emergence herbicidal glasshouse test
Description: as §1

[7] = tested on: Alopecurus myosuroides (ALOMY); test: Pre-emergence herbicidal glasshouse test
Description: as §1

[8] = tested on: Amaranthus retoflexus (AMARE); test: Pre-emergence herbicidal glasshouse test
Description: as §1

[9] = tested on: Echinochloa crus-galli (ECHCG); test: Pre-emergence herbicidal glasshouse test
Description: as §1

[10] = tested on: Setaria faberi (SETFA); test: Pre-emergence herbicidal glasshouse test
Description: as §1

COc1ccc(-n2nc(C)cc(C(=O)C3C(=O)CCCC3=O)c2=O)cc1 [Compound 1.3]
5 (5=80-100% damage): percentage herbicidal damage, ABUTH, POST Application [1] | percentage herbicidal damage, ALOMY, POST Application [2] | percentage herbicidal damage, AMARE, POST Application [3] | percentage herbicidal damage, ECHCG, POST Application [4] | percentage herbicidal damage, SETFA, POST Application [5] | percentage herbicidal damage, ABUTH, PRE Application [6] | percentage herbicidal damage, ALOMY, PRE Application [7] | percentage herbicidal damage, AMARE, PRE Application [8] | percentage herbicidal damage, ECHCG, PRE Application [9] | percentage herbicidal damage, SETFA, PRE Application [10]

Cc1cc(C(=O)C2C(=O)CC(C)CC2=O)c(=O)n(-c2ccccc2C)n1 (stereo not drawn) [Compound 1.6]
5 (5=80-100% damage): percentage herbicidal damage, ABUTH, POST Application [1] | percentage herbicidal damage, ALOMY, POST Application [2] | percentage herbicidal damage, AMARE, POST Application [3] | percentage herbicidal damage, ECHCG, POST Application [4] | percentage herbicidal damage, SETFA, POST Application [5] | percentage herbicidal damage, ABUTH, PRE Application [6] | percentage herbicidal damage, ALOMY, PRE Application [7] | percentage herbicidal damage, AMARE, PRE Application [8] | percentage herbicidal damage, ECHCG, PRE Application [9] | percentage herbicidal damage, SETFA, PRE Application [10]

Cc1cc(C(=O)C2C(=O)C(C)(C)C(=O)C(C)(C)C2=O)c(=O)n(-c2ccccc2)n1 [Compound 1.8]
5 (5=80-100% damage): percentage herbicidal damage, ABUTH, POST Application [1] | percentage herbicidal damage, ALOMY, POST Application [2] | percentage herbicidal damage, AMARE, POST Application [3] | percentage herbicidal damage, ECHCG, POST Application [4] | percentage herbicidal damage, SETFA, POST Application [5] | percentage herbicidal damage, ABUTH, PRE Application [6] | percentage herbicidal damage, ALOMY, PRE Application [7] | percentage herbicidal damage, AMARE, PRE Application [8] | percentage herbicidal damage, ECHCG, PRE Application [9] | percentage herbicidal damage, SETFA, PRE Application [10]

COc1ccc(-n2nc(C)cc(C(=O)C3C(=O)C4CCC(C4)C3=O)c2=O)cc1 (stereo not drawn) [Compound 1.4]
5 (5=80-100% damage): percentage herbicidal damage, ABUTH, POST Application [1] | percentage herbicidal damage, ALOMY, POST Application [2] | percentage herbicidal damage, AMARE, POST Application [3] | percentage herbicidal damage, ECHCG, POST Application [4] | percentage herbicidal damage, SETFA, POST Application [5] | percentage herbicidal damage, ABUTH, PRE Application [6] | percentage herbicidal damage, ALOMY, PRE Application [7] | percentage herbicidal damage, AMARE, PRE Application [8] | percentage herbicidal damage, ECHCG, PRE Application [9] | percentage herbicidal damage, SETFA, PRE Application [10]

Cc1cc(C(=O)C2C(=O)CC(C)CC2=O)c(=O)n(-c2ccccc2)n1 (stereo not drawn) [Compound 1.9]
5 (5=80-100% damage): percentage herbicidal damage, ABUTH, POST Application [1] | percentage herbicidal damage, ALOMY, POST Application [2] | percentage herbicidal damage, AMARE, POST Application [3] | percentage herbicidal damage, ECHCG, POST Application [4] | percentage herbicidal damage, SETFA, POST Application [5] | percentage herbicidal damage, ABUTH, PRE Application [6] | percentage herbicidal damage, ALOMY, PRE Application [7] | percentage herbicidal damage, AMARE, PRE Application [8] | percentage herbicidal damage, ECHCG, PRE Application [9] | percentage herbicidal damage, SETFA, PRE Application [10]

Cc1cc(C(=O)C2C(=O)CCCC2=O)c(=O)n(-c2ccccc2)n1 [Compound 1.2, 2-(6-Methyl-3-oxo-2-phenyl-2,3-dihydropyridazine-4-carbonyl)-cyclohexane-1,3-dione]
5 (5=80-100% damage): percentage herbicidal damage, ABUTH, POST Application [1] | percentage herbicidal damage, ALOMY, POST Application [2] | percentage herbicidal damage, AMARE, POST Application [3] | percentage herbicidal damage, ECHCG, POST Application [4] | percentage herbicidal damage, SETFA, POST Application [5] | percentage herbicidal damage, ABUTH, PRE Application [6] | percentage herbicidal damage, ALOMY, PRE Application [7] | percentage herbicidal damage, AMARE, PRE Application [8] | percentage herbicidal damage, ECHCG, PRE Application [9] | percentage herbicidal damage, SETFA, PRE Application [10]

Cc1cc(C(=O)C2C(=O)C3CCC(C3)C2=O)c(=O)n(-c2ccccc2)n1 (stereo not drawn) [Compound 1.7]
5 (5=80-100% damage): percentage herbicidal damage, ABUTH, POST Application [1] | percentage herbicidal damage, ALOMY, POST Application [2] | percentage herbicidal damage, AMARE, POST Application [3] | percentage herbicidal damage, ECHCG, POST Application [4] | percentage herbicidal damage, SETFA, POST Application [5] | percentage herbicidal damage, ABUTH, PRE Application [6] | percentage herbicidal damage, ALOMY, PRE Application [7] | percentage herbicidal damage, AMARE, PRE Application [8] | percentage herbicidal damage, ECHCG, PRE Application [9] | percentage herbicidal damage, SETFA, PRE Application [10]

O=C1CCCC(=O)C1C(=O)c1ccnn(-c2ccccc2)c1=O [Compound 1.1, 2-(3-Oxo-2-phenyl-2,3-dihydropyridazine-4-carbonyl)-cyclohexane-1,3-dione]
5 (5=80-100% damage): percentage herbicidal damage, ABUTH, POST Application [1] | percentage herbicidal damage, ALOMY, POST Application [2] | percentage herbicidal damage, AMARE, POST Application [3] | percentage herbicidal damage, ECHCG, POST Application [4] | percentage herbicidal damage, SETFA, POST Application [5] | percentage herbicidal damage, ABUTH, PRE Application [6] | percentage herbicidal damage, ALOMY, PRE Application [7] | percentage herbicidal damage, AMARE, PRE Application [8] | percentage herbicidal damage, ECHCG, PRE Application [9] | percentage herbicidal damage, SETFA, PRE Application [10]

COc1ccc(-n2nc(C)cc(C(=O)C3C(=O)CC(C)CC3=O)c2=O)cc1 (stereo not drawn) [Compound 1.5]
5 (5=80-100% damage): percentage herbicidal damage, ABUTH, POST Application [1] | percentage herbicidal damage, ALOMY, POST Application [2] | percentage herbicidal damage, AMARE, POST Application [3] | percentage herbicidal damage, ECHCG, POST Application [4] | percentage herbicidal damage, SETFA, POST Application [5] | percentage herbicidal damage, ABUTH, PRE Application [6] | percentage herbicidal damage, ALOMY, PRE Application [7] | percentage herbicidal damage, AMARE, PRE Application [8] | percentage herbicidal damage, ECHCG, PRE Application [9] | percentage herbicidal damage, SETFA, PRE Application [10]
